Results: US5196410A, “Transdermal flux enhancing compositions” (priority 1991, dated 1993)
≈ marks a conversion by molar mass, not a printed value. Counter-ions that a name gives are not always drawn. Like-named read-outs stand apart in the source and are kept apart here. Each block holds one compound with its values, some of them ahead of it.

Experiments:
[1] = Infrared spectra of fatty acid treated porcine stratum corneum; settings: C-H antisymmetric stretching, stratum corneum treated with […] fatty acid in ethanol, 30% (w/w) water
Procedure: (§1) Stratum corneum sheets were prepared from porcine skin by trypsin treatment. Thus, full thickness porcine skin samples were dermatomed to 350 μm thickness and spread, stratum corneum side up, on filter paper saturated with 0.5% crude trypsin in phosphate buffered saline at pH 7.4 (Sorensen's buffer). After several hours at 37° C. the stratum corneum was peeled away, washed in soybean trypsin inhibitor, water and air dried. Samples were stored desiccated at room temperature until used. Prior to use, dry skin samples of known weight were incubated for two hours in an 0.15M solution of the appropriate fatty acid in ethanol, the samples were then washed for ten seconds in ethanol, spread on wire mesh, dried over a desiccant and the dry sample reweighed. The stratum corneum samples were then held for several days in a chamber at 22° C., 95% relative humidity, during which the stratum corneum samples equilibrated to a water content of 30% (w/w).
Infrared spectra were obtained with a Fourier Transform Infrared Spectrometer^4 (FTIR) equipped with a liquid nitrogen cooled mercury-cadmium telluride detector. In order to prevent water loss, hydrated samples were sealed between zinc sulfide windows while maintained at 22° C., 95% relative humidity. Sealed samples were placed in the spectrometer where an average of 127 scans were obtained in about six minutes for each of the fatty acid treatments. The digitized data were transferred to a computer (Apple IIe) for determination of frequency and bandwidth of the C--H antisymmetric stretching absorbance. Due to the digital nature of the FTIR instrument, absorbance and frequency data exist only in discrete increments. With the instrument used, the exact value of any frequency point could only be determined with a precision not greater than 2.7 cm^-1. The peak frequency was estimated with much greater precision, however, using a center of gravity algorithm for digitized data reported by Cameron et al., Applied Spectr., 36 245-250 (1982).

[2] = type: in vitro ADME, porcine
Procedure: Samples were removed periodically from the receiver side of the diffusion cell, mixed with a Z0 scintillation cocktail (Scintisol, Isolabs, Inc., Akron, OH) and counted for several minutes in a liquid scintillation counter (Model Mark III-6881, Tracor Analytical, Elk Grove Village, IL). Following an initial lag time of about 6 hours, the amount of
salicylic acid appearing in the receiver side was linear with time for the duration of the experiment (routinely 24 to 48 hours). […] This value, when divided by the specific acitivity of salicyclic acid in the saturated solution (approximately 300 dpm/mg) and the area of exposed skin (0.2 cm^2), yielded the flux (mg/cm^2/ hr). Samples removed from the donor side at the beginning and end of the experiment contained, within error, the same amount of salicylic acid. Thus, constant concentration of the permeant was maintained on the donor side throughout the experiment.

[3] = Differential scanning calorimetry of fatty acid treated porcine stratum corneum; settings: stratum corneum treated with […] fatty acid in ethanol, 30% (w/w) water
Procedure: as §1
(§2) The differential scanning calorimeter^5 was used at a scan rate of 0.75° C./minute. Duplicate samples from each of the above FTIR experiments were combined for DSC measurements. Alternately, stratum corneum samples of known weight (about 20 mg) were treated with each fatty acid in the same manner described above. Treated samples were hydrated for several days at 95% R.H., 22° C. and reweighed.

[4] = Saturation concentration of drug in vehicle
[5] = Lipid transition temperature of porcine stratum corneum by DSC in vehicles containing oleic acid
Procedure: as §1, with “dry skin samples of known weight were incubated for two hours in an 0.15M solution of the appropriate” left out
as §2

[6] = for Flux: SD in parentheses
[7] = cited from earlier work
[8] = saturated salicylic acid in ethanol with […] of the fatty acid, 32° C.

SMILES: CCCCCCCCCCCCCCCCCC(=O)O [Stearic, stearic acid]
Peak IR Frequency [1]: 2918.0 ± 0.4 cm⁻¹
Peak IR Frequency ([1]; listed as stearic acid): 2918 to 2919 cm⁻¹
Flux of Salicylic Acid [2, 8]: 1.21 mg/cm^2 /hr
DSC Tm (temperature of the transition maximum) [3]: 62.5 ± 1.0 °C

solubility ([4]; 30% ethanol/acetate buffer, pH 5, organic solvent or mixture): 8.95 mg/mL
SMILES: COc1cc2nc(N3CCN(C(=O)C4COc5ccccc5O4)CC3)nc(N)c2cc1OC (stereo not shown) [doxazosin mesylate]

SMILES: CCCCCCCC/C=C\CCCCCCCC(=O)O [Oleic Acid, cis-9-octadecenoic acid]
Lipid Transition Temperature, Tm ([5]; 0/100 PEG 200/0.1M Tris buffer (pH 6.8-7.3), […] v/v oleic acid): 59 °C
Lipid Transition Temperature, Tm ([5]; 0/100 ethanol/0.1M Tris buffer (pH 6.8-7.3), […] v/v oleic acid): 58 °C
Lipid Transition Temperature, Tm ([5]; 0/100 glycerin/0.1M Tris buffer (pH 6.8-7.3), […] v/v oleic acid): 58 °C
Lipid Transition Temperature, Tm ([5]; 0/100 v/v ethanol/Sorensen's buffer pH 7.3, […] v/v oleic acid): 57.5 °C
Lipid Transition Temperature, Tm ([5]; 20/40/40 ethanol/PG/0.1M Tris buffer (pH 6.8-7.3), […] v/v oleic acid): 55 °C
Lipid Transition Temperature, Tm ([5]; 20/80 PEG 200/0.1M Tris buffer (pH 6.8-7.3), […] v/v oleic acid): 59 °C
Lipid Transition Temperature, Tm ([5]; 20/80 ethanol/0.1M Tris buffer (pH 6.8-7.3), […] v/v oleic acid): 59 °C
Lipid Transition Temperature, Tm ([5]; 20/80 glycerin/0.1M Tris buffer (pH 6.8-7.3), […] v/v oleic acid): 62.5 °C
Lipid Transition Temperature, Tm ([5]; 20/80 v/v ethanol/Sorensen's buffer pH 7.3, […] v/v oleic acid): 54.5 °C
Lipid Transition Temperature, Tm ([5]; 30/70 v/v ethanol/Sorensen's buffer pH 7.3, […] v/v oleic acid): 54.0 °C
Lipid Transition Temperature, Tm ([5]; 33/33/34 ethanol/PG/0.1M Tris buffer (pH 6.8-7.3), […] v/v oleic acid): 59 °C
Lipid Transition Temperature, Tm ([5]; 34/66/0 ethanol/PG/0.1M Tris buffer (pH 6.8-7.3), […] v/v oleic acid): 61 °C
Lipid Transition Temperature, Tm ([5]; 40/20/40 ethanol/PG/0.1M Tris buffer (pH 6.8-7.3), […] v/v oleic acid): 58.5 °C
Lipid Transition Temperature, Tm ([5]; 40/40/20 ethanol/PG/0.1M Tris buffer (pH 6.8-7.3), […] v/v oleic acid): 60 °C
Lipid Transition Temperature, Tm ([5]; 40/60 PEG 200/0.1M Tris buffer (pH 6.8-7.3), […] v/v oleic acid): 57.5 °C
Lipid Transition Temperature, Tm ([5]; 40/60 ethanol/0.1M Tris buffer (pH 6.8-7.3), […] v/v oleic acid): 55 °C
Lipid Transition Temperature, Tm ([5]; 40/60 glycerin/0.1M Tris buffer (pH 6.8-7.3), […] v/v oleic acid): 57 °C
Lipid Transition Temperature, Tm ([5]; 40/60 v/v ethanol/Sorensen's buffer pH 7.3, […] v/v oleic acid): 53.2 ± 0.6 °C
Lipid Transition Temperature, Tm ([5]; 50/50 v/v ethanol/Sorensen's buffer pH 7.3, […] v/v oleic acid): 55.1 °C
Lipid Transition Temperature, Tm ([5]; 60/40 PEG 200/0.1M Tris buffer (pH 6.8-7.3), […] v/v oleic acid): 57 °C
Lipid Transition Temperature, Tm ([5]; 60/40 ethanol/0.1M Tris buffer (pH 6.8-7.3), […] v/v oleic acid): 59 °C
Lipid Transition Temperature, Tm ([5]; 60/40 glycerin/0.1M Tris buffer (pH 6.8-7.3), […] v/v oleic acid): 54 °C
Lipid Transition Temperature, Tm ([5]; 60/40 v/v ethanol/Sorensen's buffer pH 7.3, […] v/v oleic acid): 53.4 °C
Lipid Transition Temperature, Tm ([5]; 66/34/0 ethanol/PG/0.1M Tris buffer (pH 6.8-7.3), […] v/v oleic acid): 60 °C
Lipid Transition Temperature, Tm ([5]; 70/30 v/v ethanol/Sorensen's buffer pH 7.3, […] v/v oleic acid): 58.8 °C
Lipid Transition Temperature, Tm ([5]; 80/20 PEG 200/0.1M Tris buffer (pH 6.8-7.3), […] v/v oleic acid): 61 °C
Lipid Transition Temperature, Tm ([5]; 80/20 ethanol/0.1M Tris buffer (pH 6.8-7.3), […] v/v oleic acid): 61 °C
Lipid Transition Temperature, Tm ([5]; 80/20 glycerin/0.1M Tris buffer (pH 6.8-7.3), […] v/v oleic acid): 59 °C
Lipid Transition Temperature, Tm ([5]; 100/0 v/v ethanol/Sorensen's buffer pH 7.3, […] v/v oleic acid): 66.4 °C
Flux of Salicylic Acid [2]: 3.81 mg/cm^2 /hr
flux of salicylic acid (in words) [2]: significantly greater
DSC Tm (temperature of the transition maximum) [3]: 59.0 ± 1.5 °C

Flux of Salicylic Acid [2]: 0.79 mg/cm^2 /hr
SMILES: CCCCCCCCCCC/C=C\CCCCC(=O)O [Petroselenic]
Peak IR Frequency [1]: 2919.0 cm⁻¹
DSC Tm (temperature of the transition maximum) [3]: 60.5 °C

SMILES: O=C(O)c1ccccc1O [Salicylic acid, salicylic acid]
solubility ([4]; ethanol, organic solvent or mixture): 310 mg/mL (≈ 2240 mM)
initial lag time ([2]; salicylic acid in receiver, 32° C.): about 6 hours
Flux of Salicylic Acid ([2]; saturated salicylic acid in ethanol, no fatty acid (ethanol control), 32° C.): 1.31 mg/cm^2 /hr

Flux ([6]; 20% v/v ethanol, 0.5% v/v Azone, 6.8 mg/ml, pH 8.8): 55.9 (38.8) mg/day/30 cm^2
Flux ([6]; 20% v/v ethanol, no Azone, 6.7 mg/ml, pH 8.9): 0.4 (0.04) mg/day/30 cm^2
Flux ([6]; 30% v/v ethanol, 0.5% v/v Azone, 8.1 mg/ml, pH 8.8): 101.4 (10.3) mg/day/30 cm^2
Flux ([6]; 30% v/v ethanol, no Azone, 8.2 mg/ml, pH 8.9): 0.6 (0.2) mg/day/30 cm^2
Flux ([6]; 55% v/v ethanol, 0.5% v/v Azone, 17.5 mg/ml, pH 8.8): 30.8 (6.5) mg/day/30 cm^2
Flux ([6]; 55% v/v ethanol, no Azone, 17.9 mg/ml, pH 9.1): 2.7 (0.5) mg/day/30 cm^2
in vitro transport ([6]; range over vehicles): 30.8 to 101.4 mg/day/30 cm^2
SMILES: Cc1cnc(C(=O)NCCc2ccc(S(=O)(=O)NC(=O)NC3CCCCC3)cc2)cn1 [Glipizide]

Flux of Salicylic Acid [2]: 0.97 mg/cm^2 /hr
SMILES: CCCCCCCCCCC/C=C/CCCCC(=O)O [Petroseladic]
Peak IR Frequency [1]: 2919.0 cm⁻¹
DSC Tm (temperature of the transition maximum) [3]: 62.0 °C

SMILES: CCCCCCCC/C=C/CCCCCCCC(=O)O [Elaidic, elaidic acid]
Peak IR Frequency [1]: 2919.4 cm⁻¹
Flux of Salicylic Acid [2]: 2.35 mg/cm^2 /hr
DSC Tm (temperature of the transition maximum) [3]: 61.5 °C

SMILES: CCCCCC/C=C/CCCCCCCCCC(=O)O [trans-vaccenic, trans-vaccenic acid]
Peak IR Frequency [1]: 2920 cm⁻¹
Flux of Salicylic Acid [2, 8]: 1.11 mg/cm^2 /hr
DSC Tm (temperature of the transition maximum) [3]: 61.0 °C

SMILES: CCCCCCCCCCCCN1CCCCCC1=O [Azone, 1-dodecylazacycloheptan-2-one]
ability to enhance percutaneous penetration ([7]; Stoughton, Arch. Derm.): ability to enhance percutaneous penetration
enhancement of dermal penetration ([7]; flurbiprofen in propylene glycol and other solvents): enhance dermal penetration
